These results are taken from PubChem BioAssay (NCI).

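Where inhibition never reached the appropriate level, the endpoint shown equals the highest concentration tested. Otherwise, values were interpolated linearly from a five-concentration, 48-hour dose response in 96-well plates. Abbreviation: GI50, concentration required for 50% inhibition of growth. TGI marks complete inhibition of growth.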 Some results are limits rather than exact numbers.

Among the test systems are RXF 393 renal; U251 CNS; MCF7 breast; OVCAR-3 ovarian; OVCAR-8 ovarian; HCT-15 colon; UACC-62 melanoma; SK-MEL-2 melanoma; MDA-MB-231 breast; CCRF-CEM leukemia.
What all share (experiment): NCI anticancer screen, dose series, 48 h

`COc1cc2c(cc1OCCCCOc1ccc(-c3nc4ccccc4s3)cc1)N=C[C@@H]1CCCN1C2=O`: the GI50 in the assay with RXF 393 renal was 0.19 µM; with U251 CNS, 0.534 µM; with MCF7 breast, 0.625 µM; in the assay with OVCAR-3 ovarian, 0.477 µM; in the assay on OVCAR-8 ovarian, 1.19 µM; in the assay on HCT-15 colon, 1.08 µM. In addition, the GI50 is 1.14 µM in the assay on UACC-62 melanoma, 0.393 µM in the assay with SK-MEL-2 melanoma, 0.573 µM with MDA-MB-231 breast and 0.456 µM in the assay with CCRF-CEM leukemia. Further, the TGI in the assay on RXF 393 renal was 0.443 µM; in the assay on U251 CNS, 1.85 µM; in the assay on MCF7 breast, 4.34 µM; in the assay with OVCAR-3 ovarian, 3.47 µM; in the assay with OVCAR-8 ovarian, 7.98 µM; in the assay with HCT-15 colon it was 3.89 µM. For the same compound, the TGI in the assay with UACC-62 melanoma came out at 2.69 µM; in the assay with SK-MEL-2 melanoma, 1.83 µM; in the assay with MDA-MB-231 breast it was 2.04 µM; in the assay with CCRF-CEM leukemia, 2.38 µM.

As for `C=C1C[C@@]2(C)C(CC[C@]3(C)C2CC=C2C4CC(C)(C)C[C@@H](OC(=O)/C(C)=C\C)[C@]4(C(=O)O)CC[C@]23C)C(C)(C)C1=O` (stereo not given in full), the GI50 in the assay with RXF 393 renal was 1.76 µM; with U251 CNS it was 2.46 µM; in the assay with MCF7 breast, 4.06 µM; in the assay on OVCAR-3 ovarian it was 2.08 µM; in the assay with OVCAR-8 ovarian it was 3.75 µM; in the assay on HCT-15 colon it was 2.23 µM. Further, the GI50 in the assay on UACC-62 melanoma was 2.93 µM; in the assay on SK-MEL-2 melanoma it was 5.93 µM; in the assay on MDA-MB-231 breast, 5.96 µM; in the assay on CCRF-CEM leukemia, 2.11 µM. Besides, the TGI was found to be 3.57 µM in the assay on RXF 393 renal; 6.83 µM in the assay on U251 CNS; 19.2 µM with MCF7 breast; 5 µM with OVCAR-3 ovarian; 27.5 µM in the assay with OVCAR-8 ovarian; 7.88 µM with HCT-15 colon. For the same compound, the TGI was 10.3 µM in the assay on UACC-62 melanoma, 24.4 µM in the assay with SK-MEL-2 melanoma, 31.4 µM in the assay with MDA-MB-231 breast and 22.9 µM with CCRF-CEM leukemia.

As for `CCCN(CCSSCCNc1nc(N(C)O)nc(N(C)O)n1)c1nc(N(C)O)nc(N(C)O)n1`, the GI50 in the assay on RXF 393 renal is 81 µM; in the assay with U251 CNS, 5.35 µM; in the assay with MCF7 breast, 4.68 µM; in the assay with OVCAR-3 ovarian, 6.42 µM; in the assay on OVCAR-8 ovarian, 5.26 µM; in the assay with HCT-15 colon, 4.28 µM. The GI50 in the assay on UACC-62 melanoma is 4.39 µM; in the assay with SK-MEL-2 melanoma it was 18.6 µM; in the assay on MDA-MB-231 breast, 18.5 µM; in the assay with CCRF-CEM leukemia, 2.24 µM. Further, the TGI in the assay with RXF 393 renal, in the assay with U251 CNS, in the assay with MCF7 breast, with OVCAR-3 ovarian, in the assay on OVCAR-8 ovarian and in the assay with HCT-15 colon was above 100 µM each time. Further, the TGI with UACC-62 melanoma was 28.9 µM; in the assay on SK-MEL-2 melanoma, above 100 µM; in the assay on MDA-MB-231 breast, above 100 µM; in the assay with CCRF-CEM leukemia it was above 100 µM.

On to `COc1cc(/C=C2\C(=O)Nc3cccc(Cl)c32)cc(OC)c1OC`, for which the GI50 in the assay with RXF 393 renal is 8.79 µM; in the assay with U251 CNS it was 41 µM; in the assay with MCF7 breast, above 100 µM; with OVCAR-3 ovarian it was above 100 µM; in the assay with OVCAR-8 ovarian it was above 100 µM; with HCT-15 colon it was above 100 µM. Moreover, the GI50 is above 100 µM with UACC-62 melanoma, above 100 µM in the assay on SK-MEL-2 melanoma, 33.3 µM with MDA-MB-231 breast and 0.0529 µM in the assay with CCRF-CEM leukemia. Further, the TGI in the assay on RXF 393 renal is 36.9 µM; in the assay with U251 CNS, above 100 µM; in the assay on MCF7 breast it was above 100 µM; with OVCAR-3 ovarian, above 100 µM; in the assay with OVCAR-8 ovarian it was above 100 µM; with HCT-15 colon, above 100 µM. Also, the TGI in the assay on UACC-62 melanoma was above 100 µM; with SK-MEL-2 melanoma, above 100 µM; in the assay with MDA-MB-231 breast, above 100 µM; with CCRF-CEM leukemia, 0.527 µM.

With `CNCCCNCCCN1C(=O)c2ccc3c4c(ccc(c24)C1=O)C(=O)N(CCCNCc1ccccc1OC)C3=O`, the GI50 was 1.89 µM in the assay with RXF 393 renal; 1.61 µM in the assay on U251 CNS; 0.512 µM in the assay with MCF7 breast; 1.37 µM in the assay with OVCAR-3 ovarian; 0.797 µM with OVCAR-8 ovarian; 2.36 µM in the assay with HCT-15 colon. For the same compound, the GI50 in the assay with UACC-62 melanoma is 1.52 µM; in the assay with SK-MEL-2 melanoma it was 1.75 µM; in the assay with MDA-MB-231 breast, 2.9 µM; in the assay on CCRF-CEM leukemia, 0.465 µM. Also, the TGI in the assay on RXF 393 renal was found to be 5.71 µM; with U251 CNS, 7.67 µM; in the assay with MCF7 breast it was 3.21 µM; in the assay on OVCAR-3 ovarian, 9.23 µM; with OVCAR-8 ovarian, 9.43 µM; in the assay with HCT-15 colon it was 12.2 µM. For the same compound, the TGI in the assay with UACC-62 melanoma is 3.51 µM; in the assay on SK-MEL-2 melanoma, 3.97 µM; in the assay on MDA-MB-231 breast, 14 µM; in the assay on CCRF-CEM leukemia, 4.53 µM.

Consider `COc1ccccc1-c1cc(=O)c2ccc(OC)c(OC)c2o1`, for which the TGI in the assay with RXF 393 renal, in the assay on U251 CNS, in the assay with MCF7 breast, in the assay with OVCAR-3 ovarian, in the assay on OVCAR-8 ovarian and in the assay on HCT-15 colon was above 100 µM each time. Further, the TGI in the assay with UACC-62 melanoma, in the assay on SK-MEL-2 melanoma, with MDA-MB-231 breast and in the assay with CCRF-CEM leukemia was above 100 µM in each case.

For the compound `COc1ccc2c(c1)C1(C(=O)N2)C(C#N)=C(c2ccccc2)Nc2c1c(-c1ccccc1)nn2-c1ccccc1` (stereo not given), the GI50 in the assay with RXF 393 renal is 1.93 µM; in the assay on U251 CNS it was 2.8 µM; in the assay with MCF7 breast, 2.09 µM; with OVCAR-3 ovarian it was 1.95 µM; with OVCAR-8 ovarian it was 3.54 µM; in the assay with HCT-15 colon, 11 µM. For the same compound, the GI50 in the assay with UACC-62 melanoma was 5.36 µM; with SK-MEL-2 melanoma, 6.47 µM; in the assay with MDA-MB-231 breast, 2.33 µM; in the assay on CCRF-CEM leukemia it was 2.9 µM. The TGI is 5.3 µM in the assay with RXF 393 renal; 7.12 µM with U251 CNS; 6.79 µM in the assay on MCF7 breast; 3.39 µM in the assay on OVCAR-3 ovarian; 12.7 µM in the assay on OVCAR-8 ovarian; 26.8 µM in the assay on HCT-15 colon. For the same compound, the TGI with UACC-62 melanoma was 18.2 µM; with SK-MEL-2 melanoma, 21.8 µM; in the assay on MDA-MB-231 breast, 5.81 µM; in the assay with CCRF-CEM leukemia, 10.4 µM.
